How the values were obtained:
Format in all cases: in vivo, mice
[1] = system: vascular endothelial growth factor (VEGF); test: VEGF concentrations in plasma and lesions by ELISA
Description: (§1) Pharmacokinetics of EGCG and pro-EGCG in the animals were studied by measuring the corresponding EGCG and pro-EGCG concentrations (EGCG in the EGCG group, pro-EGCG in the pro-EGCG group) in plasma during the intervention and also in lesions at the end of intervention. EGCG and pro-EGCG were quantified by analytical methods as previously described (Lam W H, et al. Bioorg Med Chem. 2004; 510:69-93; Chu K O, et al. J Chromat B 2004; 810:187-95; Chu K O, et al. Anal Chim Acta 2004; 510:69-76). Anti-oxidative and anti-angiogenesis capacities of the samples were also studied by measuring oxygen radical absorbance capacity (ORAC) using a modified phycoerythrin fluorescence decay assay as previously described (Wang C C, et al. Clin Chem 2004; 50:952-4), and vascular endothelial growth factor (VEGF) concentrations were measured using a commercial ELISA kit (Uscn Life Science Inc., TX) according to the manufacturer's manual. Blood samples (n=8 per group) were collected from the tail vein once per week, and plasma was prepared by immediate centrifugation. Implants without subcutaneous and muscle layers (n=4 per group) were removed from the abdominal wall, and the endometriotic lesions were frozen. All of the samples were kept in −80° C. prior to analysis.

[2] = Oxygen radical absorbance capacity (ORAC) in plasma and lesions; details: for ORAC in endometriotic lesions compared between treatment groups / ORAC in endometriotic lesions compared to saline group: lesions after intervention; for ORAC in plasma compared between treatment groups / ORAC in plasma compared to saline group: plasma during intervention
Description: as §1

[3] = system: apoptotic cells in the endometriotic lesions; test: Apoptosis in endometriotic lesions by Cellvizio YO-PRO-1 imaging and TUNEL staining; details: after 4 weeks
Experimental: At the end of intervention, functional angiogenesis of the endometriotic lesions (n=8 per group) was monitored by measuring the flow of fluorescence dye in the new microvessels developed in the implants using a Cellvizio® LAB LSU-488 system with a ProFlex Microprobe S1500 (Mauna Kea Technologies, Paris) as previously described (Xu H, et al. Fertil Steril 2011; 96:1021-8.). A total of 10 mg/ml of FITC-Dextran was injected intravenously into each mouse prior to imaging. Total vessel length (μm) and area (μm^2) and functional capillary length (μm^−1) and area density were measured using Cellvizio® LAB Vessel Detection software, and averaged from 4 perpendicular regions of the lesions in replicates. At the same time, apoptotic cells in the lesions were captured by Cellvizio-LAB 488 with a ProFlex MiniO/100 microprobe using Cellvizio® LAB I/C Viewer software (Mauna Kea Technologies). A total of 10 μl of 10 μM YO-PRO®-1 iodide in DSMO was injected into the lesion area.
The total number of apoptotic cells was counted and averaged from the 4 perpendicular regions of the lesions in replicates as described above. Both IVIS and Cellvizio imaging procedures were performed under general anesthesia with isoflurane (Baxter, Ill.), and the mice were observed until fully recovered.
TUNEL labeling for in situ apoptotic cells was performed using an ApopTag Peroxidase In Situ Apoptosis Detection Kit (Temecula, Calif.) according to the manufacturer's instructions. The total numbers of TUNEL-positive stained cells were counted. The mean numbers of apoptotic cells were calculated from 5 separated sections from each animal within the treatment group and are presented as numbers per lesion as above. […] Each section was evaluated by both examiners, who were blinded to the experimental groups and results.

[4] = system: endometriotic lesions (experimental endometriosis); test: Growth of luminescent endometriotic lesions monitored weekly by IVIS bioluminescence imaging; details: for lesion bioluminescence relative to baseline levels / lesion bioluminescence intensity compared with saline group: i.p. once per day, 4 weeks, EGCG, pro-EGCG 50 mg/kg; for lesion bioluminescence intensity compared with saline group: vitamin E 20 mg/kg
Description: Based on our previous study, an immune-compromised mouse model of experimental endometriosis was created by subcutaneous transplantation of human or mouse tissues to assess the anti-angiogenic effects and mechanisms of green tea catechin (Xu H, et al. Hum Reprod 2009; 24:608-18; Xu H, et al. Fertil Steril 2011; 96:1021-8).
In this study, endometrial tissues from eight-week-old female CMV-Luc mice (n=15) were acquired for transplantation into nonluminescent NOD-SCID mice (n=32). The mouse endometrium was obtained during the proliferating estrous stage, and biopsies 2 mm in diameter were obtained with a sterile dermal biopsy punch (Miltex, NY). The biopsies were immediately washed in prewarmed, phenol-red-free DMEM/F-12 medium (Sigma) to remove residual blood and mucus, and the samples were maintained in serum-free DMEM/F-12 medium before transplantation (Bruner-Tran K L, et al. J Clin Endocrinol Metab 2009; 94:2489-94). Cultured endometrial biopsies were randomly allocated for transplantation.
Five mouse endometrial biopsies per treatment group were implanted into a single subcutaneous pocket created is the abdominal wall of the mice along the ventral midline immediately below the umbilicus. All of the surgical procedures were performed under general anesthesia with isoflurane (Baxter, IL), and the mice were monitored until they fully recovered.
Development and angiogenesis of the experimental endometriosis were monitored using various in vivo imaging systems. During the intervention, growth of the endometriotic lesions (n=8 per group) was monitored each week by measuring the bioluminescence of the subcutaneous luciferase-positive implants using a non-invasive IVIS 200 live animal imaging system (Xenogen) as previously described (Song C, et al. Hum Gene Ther, 2011; 22:439-49). A total of 150 mg/kg of luciferin was injected intraperitoneally […] 10 mins prior to imaging. An image from each animal was captured at bin size 4 in triplicate, and the bioluminescence signal intensities were averaged for comparison.

Row | SMILES | VEGF concentrations in endometriotic lesions compared to saline group ([1]; lesions after intervention) | VEGF concentrations in plasma compared to saline group ([1]; plasma during intervention) | ORAC in endometriotic lesions compared between treatment groups [2] | ORAC in endometriotic lesions compared to saline group [2] | ORAC in plasma compared between treatment groups [2] | ORAC in plasma compared to saline group [2] | total apoptotic cell numbers in the lesions compared to saline group [3] | lesion bioluminescence relative to baseline levels [4] | lesion bioluminescence intensity compared with saline group [4] | VEGF concentrations in endometriotic lesions compared with EGCG group ([1]; lesions after intervention) | VEGF concentrations in plasma compared with EGCG group ([1]; plasma during intervention) | apoptotic cell numbers in the lesions compared with EGCG group [3] | lesion bioluminescence intensity compared with EGCG group ([4]; 50 mg/kg i.p. once per day, 2nd, 3rd and 4th weeks)
1 | O=C(O[C@@H]1Cc2c(O)cc(O)cc2O[C@@H]1c1cc(O)c(O)c(O)c1)c1cc(O)c(O)c(O)c1 [EGCG, (−)-epigallocatechin-3-gallate] | significantly decreased | significantly decreased | not significantly different from the vitamin E group | significantly increased | not significantly different from the vitamin E group | significantly increased | significantly increased | maintained around the baseline levels | significantly lower than that of the saline group at the 2nd, 3rd and 4th weeks | – | – | – | –
2 | CC(=O)Oc1cc(OC(C)=O)c2c(c1)O[C@H](c1cc(OC(C)=O)c(OC(C)=O)c(OC(C)=O)c1)[C@H](OC(=O)c1cc(OC(C)=O)c(OC(C)=O)c(OC(C)=O)c1)C2 [pro-EGCG, (−)-EGCG octaacetate] | significantly decreased | significantly decreased | significantly higher than in the EGCG and vitamin E groups | significantly increased | significantly higher than in the EGCG and vitamin E groups | significantly increased | significantly increased | decreased further below the baseline levels | significantly lower than that of both the saline group and the EGCG group at the 2nd, 3rd and 4th weeks | significantly lower than those in the EGCG group | significantly lower than those in the EGCG group | significantly higher than the number in the EGCG group | significantly lower than that of both the saline group and the EGCG group at the 2nd, 3rd and 4th weeks

— patent US10188629B2, “Prodrug of green tea epigallocatechin-3-gallate (pro-EGCG) for use in the treatment of endometriosis” (The Hong Kong Polytechnic University, priority 2012, dated 2019)
